According to the supplement of paper PMC10307832:

Assays:
Assay in all cases: relative viability (nuclei count vs DMSO), 5 days (fraction); higher = more cells survive
[1] = test system: ABC-1
Method in brief: (§1)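 Values are medians from duplicate plates. Each reflects relative viability, defined as the nuclei count of treated wells over that of vehicle wells. Lung cancer cell lines in 1536-well plates were pin-tool dosed one day after seeding with one drug alone or with a fixed anchor-drug dose plus five library-drug doses (not always all listed) in √10 steps, then fixed, stained and imaged at 4× after 5 days.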

[2] = test system: NCI-H838
Method in brief: as §1

[3] = test system: EMC-BAC-2
Method in brief: as §1

[4] = test system: NCI-H2347
Method in brief: as §1

[5] = test system: HOP-62
Method in brief: as §1

[6] = test system: SW 900
Method in brief: as §1

[7] = test system: HCC-44
Method in brief: as §1

[8] = test system: NCI-H3122
Method in brief: as §1

[9] = test system: PC-14
Method in brief: as §1

[10] = test system: ChaGo-K-1
Method in brief: as §1

[11] = test system: EKVX
Method in brief: as §1

[12] = test system: SK-MES-1
Method in brief: as §1

[13] = test system: 201T
Method in brief: as §1

[14] = test system: RERF-LC-KJ
Method in brief: as §1

[15] = test system: SW 1573
Method in brief: as §1

[16] = test system: NCI-H1355
Method in brief: as §1

[17] = test system: UMC-11
Method in brief: as §1

[18] = test system: NCI-H2009
Method in brief: as §1

[19] = test system: LK-2
Method in brief: as §1

[20] = test system: HCC-78
Method in brief: as §1

[21] = test system: LC-2-ad
Method in brief: as §1

COCC1(CO)C(=O)C2CCN1CC2 (stereo unspecified) [PRIMA-1MET] + Nc1ncn([C@H]2C[C@H](O)[C@@H](CO)O2)c(=O)n1 [Decitabine] (partner 2 µM)
relative viability ([1]; first compound 0.2 µM): 1.07 | relative viability ([1]; first compound 2 µM): 0.983 | relative viability ([1]; first compound 6.325 µM): 1.36 | relative viability ([1]; first compound 20 µM): 0.552 | relative viability ([2]; first compound 0.2 µM): 0.435 | relative viability ([2]; first compound 0.6325 µM): 0.312 | relative viability ([2]; first compound 2 µM): 0.474 | relative viability ([2]; first compound 6.325 µM): 0.472 | relative viability ([2]; first compound 20 µM): 0.453 | relative viability ([3]; first compound 0.2 µM): 1 | relative viability ([3]; first compound 0.6325 µM): 0.818 | relative viability ([3]; first compound 2 µM): 0.967 | relative viability ([3]; first compound 6.325 µM): 0.938 | relative viability ([3]; first compound 20 µM): 0.928 | relative viability ([4]; first compound 0.2 µM): 0.705 | relative viability ([4]; first compound 0.6325 µM): 0.549 | relative viability ([4]; first compound 2 µM): 0.605 | relative viability ([4]; first compound 6.325 µM): 0.668 | relative viability ([4]; first compound 20 µM): 0.63 | relative viability ([5]; first compound 0.2 µM): 0.22 | relative viability ([5]; first compound 0.6325 µM): 0.217 | relative viability ([5]; first compound 2 µM): 0.207 | relative viability ([5]; first compound 6.325 µM): 0.203 | relative viability ([5]; first compound 20 µM): 0.169 | relative viability ([6]; first compound 0.2 µM): 0.402 | relative viability ([6]; first compound 0.6325 µM): 0.386 | relative viability ([6]; first compound 6.325 µM): 0.425 | relative viability ([6]; first compound 20 µM): 0.0976 | relative viability ([7]; first compound 0.2 µM): 1.04 | relative viability ([7]; first compound 0.6325 µM): 0.595 | relative viability ([7]; first compound 2 µM): 0.998 | relative viability ([7]; first compound 6.325 µM): 0.942 | relative viability ([7]; first compound 20 µM): 0.93 | relative viability ([8]; first compound 0.2 µM): 0.336 | relative viability ([8]; first compound 0.6325 µM): 0.288 | relative viability ([8]; first compound 2 µM): 0.425 | relative viability ([8]; first compound 6.325 µM): 0.367 | relative viability ([8]; first compound 20 µM): 0.425 | relative viability ([9]; first compound 0.2 µM): 0.18 | relative viability ([9]; first compound 0.6325 µM): 0.109 | relative viability ([9]; first compound 2 µM): 0.211 | relative viability ([9]; first compound 6.325 µM): 0.21 | relative viability ([9]; first compound 20 µM): 0.0433 | relative viability ([10]; first compound 0.2 µM): 0.514 | relative viability ([10]; first compound 0.6325 µM): 0.362 | relative viability ([10]; first compound 2 µM): 0.557 | relative viability ([10]; first compound 6.325 µM): 0.518 | relative viability ([10]; first compound 20 µM): 0.518 | relative viability ([11]; first compound 0.2 µM): 0.407 | relative viability ([11]; first compound 2 µM): 0.277 | relative viability ([11]; first compound 6.325 µM): 0.336 | relative viability ([11]; first compound 20 µM): 0.199 | relative viability ([12]; first compound 0.2 µM): 0.381 | relative viability ([12]; first compound 0.6325 µM): 0.32 | relative viability ([12]; first compound 2 µM): 0.376 | relative viability ([12]; first compound 6.325 µM): 0.339 | relative viability ([12]; first compound 20 µM): 0.337 | relative viability ([13]; first compound 0.2 µM): 0.921 | relative viability ([13]; first compound 0.6325 µM): 0.607 | relative viability ([13]; first compound 2 µM): 0.762 | relative viability ([13]; first compound 6.325 µM): 0.87 | relative viability ([13]; first compound 20 µM): 0.896 | relative viability ([14]; first compound 0.2 µM): 0.753 | relative viability ([14]; first compound 0.6325 µM): 0.617 | relative viability ([14]; first compound 2 µM): 0.718 | relative viability ([14]; first compound 6.325 µM): 0.69 | relative viability ([14]; first compound 20 µM): 0.595 | relative viability ([15]; first compound 0.2 µM): 0.58 | relative viability ([15]; first compound 2 µM): 0.285 | relative viability ([15]; first compound 6.325 µM): 0.0265 | relative viability ([15]; first compound 20 µM): 0.0223 | relative viability ([16]; first compound 0.2 µM): 0.366 | relative viability ([16]; first compound 0.6325 µM): 0.347 | relative viability ([16]; first compound 2 µM): 0.338 | relative viability ([16]; first compound 6.325 µM): 0.329 | relative viability ([16]; first compound 20 µM): 0.323 | relative viability ([17]; first compound 0.2 µM): 0.675 | relative viability ([17]; first compound 0.6325 µM): 0.477 | relative viability ([17]; first compound 2 µM): 0.399 | relative viability ([17]; first compound 6.325 µM): 0.668 | relative viability ([17]; first compound 20 µM): 0.46 | relative viability ([18]; first compound 0.2 µM): 0.383 | relative viability ([18]; first compound 0.6325 µM): 0.389 | relative viability ([18]; first compound 2 µM): 0.341 | relative viability ([18]; first compound 6.325 µM): 0.345 | relative viability ([18]; first compound 20 µM): 0.153 | relative viability ([19]; first compound 0.2 µM): 0.262 | relative viability ([19]; first compound 0.6325 µM): 0.158 | relative viability ([19]; first compound 2 µM): 0.247 | relative viability ([19]; first compound 6.325 µM): 0.182 | relative viability ([19]; first compound 20 µM): 0.0846 | relative viability ([20]; first compound 0.2 µM): 0.643 | relative viability ([20]; first compound 0.6325 µM): 0.598 | relative viability ([20]; first compound 2 µM): 0.553 | relative viability ([20]; first compound 6.325 µM): 0.697 | relative viability ([20]; first compound 20 µM): 0.377 | relative viability ([21]; first compound 0.2 µM): 0.902 | relative viability ([21]; first compound 0.6325 µM): 0.607 | relative viability ([21]; first compound 2 µM): 0.773 | relative viability ([21]; first compound 6.325 µM): 0.776 | relative viability ([21]; first compound 20 µM): 0.776
